From ChEMBL document CHEMBL3044788, “α-(Substituted-phenoxyacetoxy)-α-heterocyclylmethylphosphonates: synthesis, herbicidal activity, inhibition on pyruvate dehydrogenase complex (PDHc), and application as postemergent herbicide against broadleaf weeds” (J Agric Food Chem, 2013)
Values joined by “and” are separate entries in the source; they are usually repeats but may differ in a detail not shown here. Equal values may be shown once.

Experiments:
[1] = test system: Brassica rapa subsp. oleifera; assay: Herbicidal activity against Brassica rapa subsp. oleifera assessed as inhibition of rape root growth at 450 g/ha by postemergence herbicidal activity assay; type: functional; conditions: post-emergence, read-out: GI
[2] = test system: Brassica rapa subsp. oleifera; assay: Herbicidal activity against Brassica rapa subsp. oleifera assessed as inhibition of rape root growth; type: functional, organism-based
Echinochloa crus-galli = assay: Herbicidal activity against 2 to 3 leaf stage Echinochloa crus-galli (barnyard grass) assessed as inhibition of plant growth at 450 g/ha in greenhouse by postemergence herbicidal activity assay; type: functional; conditions: for inhibition of growth at 450 g/ha: Echinochloa crus-galli, post-emergence, read-out: GI
Amaranthus retroflexus [3] = assay: Herbicidal activity against 2 to 3 leaf stage Amaranthus retroflexus assessed as inhibition of plant growth at 450 g/ha in greenhouse by postemergence herbicidal activity assay; type: functional; conditions: post-emergence, read-out: GI
Pisum sativum = assay: Herbicidal activity against 2 to 3 leaf stage Pisum sativum assessed as inhibition of plant growth at 450 g/ha in greenhouse by postemergence herbicidal activity assay; type: functional; conditions: Lathyrus oleraceus, post-emergence; read-out: GI
[4] = test system: Brassica rapa subsp. oleifera; assay: Herbicidal activity against Brassica rapa subsp. oleifera assessed as inhibition of rape root growth at 450 g/ha by pre-emergence herbicidal activity assay; type: functional; conditions: read-out: GI
Brassica juncea = assay: Herbicidal activity against two to three-leaf stage Brassica juncea assessed as inhibition of plant growth at 450 g/ha in greenhouse by post-emergence herbicidal activity assay; type: functional; conditions: read-out: GI
[5] = Inhibition of Oryza sativa (rice) PDHc by spectrophotometric assay
[6] = molecular target: T1, Pyruvate dehydrogenase complex (Pisum sativum, UniProt P52902+P52904); assay: Inhibition of Pisum sativum (pea) PDHc by spectrophotometric assay; type: protein-complex assay, Lathyrus oleraceus
T1 sequence (P52902 whole entry): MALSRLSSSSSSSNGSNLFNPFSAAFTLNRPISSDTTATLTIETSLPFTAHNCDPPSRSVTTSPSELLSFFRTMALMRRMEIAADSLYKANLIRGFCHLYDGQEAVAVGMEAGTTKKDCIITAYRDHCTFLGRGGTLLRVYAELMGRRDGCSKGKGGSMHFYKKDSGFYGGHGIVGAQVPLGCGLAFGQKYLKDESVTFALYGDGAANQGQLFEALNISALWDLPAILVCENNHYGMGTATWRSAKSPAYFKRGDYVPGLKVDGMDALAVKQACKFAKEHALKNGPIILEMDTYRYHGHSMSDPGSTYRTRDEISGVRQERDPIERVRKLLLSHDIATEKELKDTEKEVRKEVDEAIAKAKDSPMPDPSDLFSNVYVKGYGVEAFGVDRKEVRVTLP
T1 sequence (P52904 whole entry): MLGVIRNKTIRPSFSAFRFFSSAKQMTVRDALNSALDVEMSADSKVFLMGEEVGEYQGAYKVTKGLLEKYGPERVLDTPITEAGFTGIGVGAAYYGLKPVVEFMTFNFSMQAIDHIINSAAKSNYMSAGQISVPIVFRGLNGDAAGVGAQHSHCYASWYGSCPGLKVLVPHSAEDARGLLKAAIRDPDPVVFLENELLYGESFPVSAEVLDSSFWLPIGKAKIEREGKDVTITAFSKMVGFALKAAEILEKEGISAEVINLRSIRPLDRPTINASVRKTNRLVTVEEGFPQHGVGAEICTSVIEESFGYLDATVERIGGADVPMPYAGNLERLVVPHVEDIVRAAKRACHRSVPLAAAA

Oryza sativa = assay: Herbicidal activity against two to three-leaf stage Oryza sativa (rice) assessed as inhibition of plant growth at 450 g/ha in greenhouse by postemergence herbicidal activity assay; type: organism-based; conditions: in vivo, other
Eclipta prostrata [7] = assay: Herbicidal activity against two to three-leaf stage Eclipta prostrata assessed as inhibition of plant growth at 150 g/ha in greenhouse by post-emergence herbicidal activity assay; type: functional; conditions: read-out: GI
Amaranthus retroflexus [8] = assay: Herbicidal activity against 2 to 3 leaf stage Amaranthus retroflexus assessed as inhibition of plant growth at 150 g/ha in greenhouse by postemergence herbicidal activity assay; type: functional; conditions: post-emergence, read-out: GI
Abutilon theophrasti [9] = assay: Herbicidal activity against two to three-leaf stage Abutilon theophrasti (velvetleaf) assessed as inhibition of plant growth at 150 g/ha in greenhouse by post-emergence herbicidal activity assay; type: functional; conditions: read-out: GI
[10] = test system: Brassica rapa subsp. oleifera; assay: Herbicidal activity against two to three-leaf stage Brassica rapa subsp. oleifera assessed as inhibition of plant growth at 150 g/ha in greenhouse by postemergence herbicidal activity assay; type: functional; conditions: post-emergence, read-out: GI
Eclipta prostrata [11] = assay: Herbicidal activity against two to three-leaf stage Eclipta prostrata assessed as inhibition of plant growth at 450 g/ha in greenhouse by post-emergence herbicidal activity assay; type: functional; conditions: read-out: GI
Abutilon theophrasti [12] = assay: Herbicidal activity against two to three-leaf stage Abutilon theophrasti (velvetleaf) assessed as inhibition of plant growth at 450 g/ha in greenhouse by post-emergence herbicidal activity assay; type: functional; conditions: read-out: GI
[13] = test system: Brassica rapa subsp. oleifera; assay: Herbicidal activity against two to three-leaf stage Brassica rapa subsp. oleifera assessed as inhibition of plant growth at 450 g/ha in greenhouse by postemergence herbicidal activity assay; type: functional; conditions: post-emergence, read-out: GI

| SMILES | inhibition of growth at 450 g/ha [1] [%] | IC50 [2] [µM] | inhibition of growth at 450 g/ha (Echinochloa crus-galli) [%] | inhibition of growth at 450 g/ha (Amaranthus retroflexus [3]) [%] | inhibition of growth at 450 g/ha (Pisum sativum) [%] | inhibition of growth at 450 g/ha [4] [%] | inhibition of growth at 450 g/ha (Brassica juncea) [%] | IC50 [5] [µM] | IC50 [6] [µM] | growth inhibition (GI) (Oryza sativa) [%] | inhibition of growth at 150 g/ha (Eclipta prostrata [7]) [%] | inhibition of growth at 150 g/ha (Amaranthus retroflexus [8]) [%] | inhibition of growth at 150 g/ha (Abutilon theophrasti [9]) [%] | inhibition of growth at 150 g/ha [10] [%] | growth inhibition (GI) (Echinochloa crus-galli) | inhibition of growth at 450 g/ha (Eclipta prostrata [11]) [%] | inhibition of growth at 450 g/ha (Abutilon theophrasti [12]) [%] | inhibition of growth at 450 g/ha [13] [%] |
| --- | --- | --- | --- | --- | --- | --- | --- | --- | --- | --- | --- | --- | --- | --- | --- | --- | --- | --- |
| COP(=O)([O-])C(OC(=O)COc1ccc(Cl)cc1Cl)c1ccco1.[Na+] (centres undefined) | 95 | 0.0396 | 50 | 100 | 98 | 96 | 92.5 | 41.1 | 6.96 | 45 | – | – | – | – | – | – | – | – |
| COP(=O)([O-])COC(=O)COc1ccc(Cl)cc1Cl.[Na+] | – | – | 10 | 92 | 52.5 | – | 93 | 29.1 | – | 12 | – | – | – | – | – | – | – | – |
| CCC(OC(=O)COc1ccc(Cl)cc1Cl)P(=O)([O-])OC.[Na+] (centres undefined) | – | – | 30 | 97 | 90 | – | 94.5 | 18.9 | – | 27 | – | – | – | – | – | – | – | – |
| CCCC(OC(=O)COc1ccc(Cl)cc1Cl)P(=O)([O-])OC.[Na+] (centres undefined) | – | – | 45 | 97 | 77.5 | – | 96 | 3.26 | – | 22 | – | – | – | – | – | – | – | – |
| COP(=O)([O-])C(C)OC(=O)COc1ccc(Cl)cc1Cl.[Na+] (centres undefined) | – | – | 50 | 98 | 71.5 | – | 100 | 0.29 | – | 27 | – | – | – | – | – | – | – | – |
| COP(=O)(OC)C(OC(=O)COc1cccc(C(F)(F)F)c1)c1ccccn1 (centres undefined) | – | – | 0 | 77.5 | 0 | – | 60 | – | > 2300 | 0 | – | – | – | – | – | – | – | – |
| COP(=O)(O)C(O)c1ccco1 (centres undefined) | 20 | > 4670 | 17.5 | 0 | 0 | 23 | – | – | > 4670 | – | – | – | – | – | – | – | – | – |
| COP(=O)(O)C(=O)c1ccco1 | 30 | 3240 | 25 | 25 | 35 | 20 | – | – | 389 | – | – | – | – | – | – | – | – | – |
| O=C(O)COc1ccc(Cl)cc1Cl [2,4-DICHLOROPHENOXYACETIC ACID] | 90 | 0.0556 | 35 | 100 | 97.5 | 98 | 100 | – | > 4530 | – | 90 | 92 | 93 | 92.5 | – | – | – | – |
| COP(=O)(OC)C(C)OC(=O)COc1ccc(Cl)cc1Cl (centres undefined) [CLACYFOS] | 98 | 0.0344 | – | 100 | 97.5 | 96 | 100 | 867 | – | 0 | 90 | 91 | 95 | 92 | 35% and 100% | 0 | 100 | 100 |
| COP(=O)(OC)C(C)O (centres undefined) [DIMETHYL 1-HYDROXYETHYLPHOSPHONATE] | 30 | 2400 | – | – | – | 36 | – | – | – | – | – | – | – | – | – | – | – | – |
| COP(=O)(OC)C(C)=O [DIMETHYL ACETYLPHOSPHONATE] | 45 | 1880 | – | – | – | 34 | – | – | – | – | – | – | – | – | – | – | – | – |
| COP(=O)(O)C(C)=O [SODIUM METHYL ACETYLPHOSPHONATE] | – | – | – | – | – | – | – | – | 70 | – | – | – | – | – | – | – | – | – |
